According to patent US20140286903A1, “Substituted Purine Nucleosides, Phosphoramidate and Phosphordiamidate Derivatives for Treatment if Viral Infections” (INHIBITEX, INC., priority 2011, published 2014):

Assays:
[1] = test system: HCV replicon (Genotype 1b); test: Luciferase genotype 1b replicon potency assay; format: cell-based, hepatitis C virus; conditions: Renilla luciferase reporter activity, 50% decrease vs untreated cells
Description: (§1) Further to the above Examples, representative compounds, prepared according to the examples were tested for potency in an HCV replicon assay (Genotype 1b) for activity against the virus (EC50) and toxicity to the cells (CC50).
(§2) Huh7 Replicon Cell Lines and Cell Culture Conditions: A luciferase-reporter genotype 1b subgenomic replicon cell line, and a genotype 1a full-length replicon cell line were obtained from Apath, LLC, Brooklyn, N.Y.: All cell lines were passaged twice a week by splitting 4 or 6 fold. Cells were maintained in DMEM-high glucose medium (HyClone, Logan, Utah) supplemented with 9% FBS (HyClone), 2 mM glutamine (Invitrogen, Carlsbad, Calif.), 100 U/mL PenStrep (Invitrogen). Media also contained 0.25 mg/mL of the antibiotic G-418 to maintain stable expression of the replicon (Invitrogen). Incubation was performed at 37° C. in 5% CO2 atmosphere. Replicon cell lines were used until they accumulated 15-to-18 passages, after which cells were restarted from the frozen stock. Seeding cell counts were routinely determined using an automatic Cedex HiRes cell counter (Flownomics Analytical Instruments, Madison, Wis.) or manually using INCYTO C-Chip™ Disposable Hemacytometers (Fisher Scientific, Pittsburg, Pa.).
Luciferase Genotype 1b Replicon Potency Assay. Replicon cells were seeded into white 96-well plates (Nunc/VWR) at a density of 2×10^4 cells/well in medium without G-418. A Stacker Multidrop Liquid Dispenser (MTX Lab Systems, Vienna, Va.) was employed to ensure uniform and fast cell seeding into multiple plates. 18-24 h after cell plating, inhibitors were added and cells were incubated for additional 24, 48, or 72 h (as indicated). Compounds were tested in triplicates and quadruplicates at 3× or 4× serial dilutions over a range of 0.0001-to-10 μM concentrations. HCV replication was monitored by Renilla luciferase reporter activity assay using Renilla luciferase reporter (Promega, Madison, Wis.) and a Veritas Luminometer (Turner Biosystems, Sunnyvale, Calif.). 50% and 90% inhibitory concentration (IC50 and IC90) values were calculated as the concentration of compound that results correspondingly in 50% and 90% decreases in the reporter expression as compared to untreated cells. The values were determined by non-linear regression (four-parameter sigmoidal curve fitting) analysis.

[2] = Cytotoxicity assay (CellTiter-Glo); format: cell-based; conditions: human, 72 h incubation, concentration resulting in 50% luminescent signal
Description: as §1, §2
Cytotoxicity Assay. Cells were seeded into 96-well plates at a density of 2×10^4 cells per well. 24 h after cell plating, 11 serial 2× compound dilutions, starting with 100 µM, were applied to the testing plates (3 repeats per compound dilution). Each testing plate was run with a “no-compound” control. Incubation with compounds was continued at 37° C. in a CO2 incubator for 72 h. To determine cell viability, the CellTiter-Glo® assay (Promega, Madison, Wis.) was performed according to the manufacturer's protocol. The compound concentration resulting in 50% luminescent signal was reported as the CC50 concentration.

[3] = Hepatitis C virus, Huh-7, Huh7 luciferase-reporter genotype 1b subgenomic replicon cells
[4] = Huh7 HCV replicon cells (genotype 1b)

| SMILES | IC50 [1, 3] | CC50 at 72 h [2, 4] | IC50 ([1]; Huh7 luciferase-reporter genotype 1b subgenomic replicon cells) | CC50 at 72 h [2] |
| --- | --- | --- | --- | --- |
| COc1nc(N)nc2c1ncn2[C@@H]1O[C@H](CO)[C@@H](F)[C@@]1(C)O [Example 2, (2R,3S,4R,5R)-2-(2-amino-6-methoxy-9H-purin-9-yl)-4-fluoro-5-(hydroxymethyl)-3-methyltetrahydrofuran-3-ol] | > 100 µM | > 100 µM |  |  |
| C[C@@]1(O)[C@H](F)[C@@H](CO)O[C@H]1n1cnc2c(=O)[nH]c(N)nc21 [Example 3, 2-amino-9-((2R,3S,4R,5R)-4-fluoro-3-hydroxy-5-(hydroxymethyl)-3-methyltetrahydrofuran-2-yl)-1H-purin-6(9H)-one] | > 100 µM | > 100 µM |  |  |
| COc1nc(N)nc2c1ncn2[C@H]1O[C@H](CO)[C@@H](F)[C@]1(C)O [Example 4, (2S,3R,4R,5R)-2-(2-Amino-6-methoxy-9H-purin-9-yl)-4-fluoro-5-(hydroxymethyl)-3-methyltetrahydrofuran-3-ol] | > 100 µM | > 100 µM |  |  |
| C[C@]1(O)[C@H](F)[C@@H](CO)O[C@@H]1n1cnc2c(Cl)nc(N)nc21 [Example 5, (2S,3R,4R,5R)-2-(2-amino-6-chloro-9H-purin-9-yl)-4-fluoro-5-(hydroxymethyl)-3-methyltetrahydrofuran-3-ol] | > 100 µM | > 100 µM |  |  |
| CCOc1nc(N)nc2c1ncn2[C@@H]1O[C@H](CO)[C@@H](F)[C@@]1(C)O [Example 6, (2R,3S,4R,5R)-2-(2-amino-6-ethoxy-9H-purin-9-yl)-4-fluoro-5-(hydroxymethyl)-3-methyltetrahydrofuran-3-ol] | > 100 µM | > 100 µM |  |  |
| C[C@@]1(O)[C@H](F)[C@@H](CO)O[C@H]1n1cnc2c(N3CCC3)nc(N)nc21 [Example 7, (2R,3S,4R,5R)-2-(2-Amino-6-(azetidin-1-yl)-9H-purin-9-yl)-4-fluoro-5-(hydroxymethyl)-3-methyltetrahydrofuran-3-ol] | 24 µM | > 100 µM | > 40 µM |  |
| C[C@@]1(O)[C@H](F)[C@@H](CO)O[C@H]1n1cnc2c(N)ncnc21 [Example 8, (2R,3S,4R,5R)-2-(6-Amino-9H-purin-9-yl)-4-fluoro-5-(hydroxymethyl)-3-methyltetrahydrofuran-3-ol] | > 100 µM | > 100 µM |  |  |
| C[C@@]1(O)[C@H](F)[C@@H](CO)O[C@H]1n1ccc(N)nc1=O [Example 9, 4-Amino-1-((2R,3S,4R,5R)-4-fluoro-3-hydroxy-5-(hydroxymethyl)-3-methyltetrahydrofuran-2-yl)pyrimidin-2(1H)-one] | > 100 µM | > 100 µM |  |  |
| C[C@@]1(O)[C@H](F)[C@@H](CO)O[C@H]1n1ccc(=O)[nH]c1=O [Example 10, 1-((2R,3S,4R,5R)-4-Fluoro-3-hydroxy-5-(hydroxymethyl)-3-methyltetrahydrofuran-2-yl)pyrimidine-2,4(1H,3H)-dione] | 23 µM | > 100 µM |  |  |
| COc1nc(N)nc2c1ncn2[C@@H]1O[C@H](CO)[C@H](F)[C@@]1(C)O [Example 11, (2R,3S,4S,5R)-2-(2-Amino-6-methoxy-9H-purin-9-yl)-4-fluoro-5-(hydroxymethyl)-3-methyltetrahydrofuran-3-ol] | > 100 µM | > 100 µM |  |  |
| COc1nc(N)nc2c1ncn2[C@@H]1O[C@H](COP(=O)(N[C@@H](C)C(=O)OCc2ccccc2)Oc2cccc3ccccc23)[C@@H](F)[C@@]1(C)O (stereo partly drawn) [Example 12, (2S)-Benzyl 2-((((2R,3R,4S,5R)-5-(2-amino-6-methoxy-9H-purin-9-yl)-3-fluoro-4-hydroxy-4-methyltetrahydrofuran-2-yl)methoxy)(naphthalen-1-yloxy)phosphorylamino)propanoate] | 0.77 µM |  |  | 48 µM |
| COc1nc(N)nc2c1ncn2[C@@H]1O[C@H](COP(=O)(N[C@@H](C)C(=O)OCc2ccc(F)cc2F)Oc2cccc3ccccc23)[C@@H](F)[C@@]1(C)O (stereo partly drawn) [Example 13, (2S)-2,4-Difluorobenzyl 2-((((2R,3R,4S,5R)-5-(2-amino-6-methoxy-9H-purin-9-yl)-3-fluoro-4-hydroxy-4-methyltetrahydrofuran-2-yl)methoxy)(naphthalen-1-yloxy)phosphorylamino)propanoate] | 1 µM |  |  | 68 µM |
| CCCCOC(=O)[C@H](C)NP(=O)(OC[C@H]1O[C@@H](n2cnc3c(OC)nc(N)nc32)[C@](C)(O)[C@@H]1F)Oc1cccc2ccccc12 (stereo partly drawn) [Example 14, (2S)-butyl 2-((((2R,3R,4S,5R)-5-(2-amino-6-methoxy-9H-purin-9-yl)-3-fluoro-4-hydroxy-4-methyltetrahydrofuran-2-yl)methoxy)(naphthalen-1-yloxy)phosphorylamino)propanoate] | 0.33 µM |  |  | 40 µM |
| COc1nc(N)nc2c1ncn2[C@@H]1O[C@H](COP(=O)(N[C@@H](C)C(=O)OCCC(C)(C)C)Oc2cccc3ccccc23)[C@@H](F)[C@@]1(C)O (stereo partly drawn) [Example 15, (2S)-3,3-Dimethylbutyl 2-((((2R,3R,4S,5R)-5-(2-amino-6-methoxy-9H-purin-9-yl)-3-fluoro-4-hydroxy-4-methyltetrahydrofuran-2-yl)methoxy)(naphthalen-1-yloxy)phosphorylamino)propanoate] | 0.5 µM |  |  | 21 µM |
| COc1nc(N)nc2c1ncn2[C@@H]1O[C@H](COP(=O)(N[C@@H](C)C(=O)OCC(C)(C)C)Oc2cccc3ccccc23)[C@@H](F)[C@@]1(C)O (stereo partly drawn) [Example 16, (2S)-Neopentyl 2-((((2R,3R,4S,5R)-5-(2-amino-6-methoxy-9H-purin-9-yl)-3-fluoro-4-hydroxy-4-methyltetrahydrofuran-2-yl)methoxy)(naphthalen-1-yloxy)phosphorylamino)propanoate] | 0.37 µM |  |  | 29 µM |
| COc1nc(N)nc2c1ncn2[C@@H]1O[C@H](COP(=O)(N[C@@H](C)C(=O)OC2CCCC2)Oc2cccc3ccccc23)[C@@H](F)[C@@]1(C)O (stereo partly drawn) [Example 17, (2S)-Cyclopentyl 2-((((2R,3R,4S,5R)-5-(2-amino-6-methoxy-9H-purin-9-yl)-3-fluoro-4-hydroxy-4-methyltetrahydrofuran-2-yl)methoxy)(naphthalen-1-yloxy)phosphorylamino)propanoate] | 0.45 µM |  |  | 40 µM |
| COc1nc(N)nc2c1ncn2[C@@H]1O[C@H](COP(=O)(N[C@@H](C)C(=O)OC2CCCCC2)Oc2cccc3ccccc23)[C@@H](F)[C@@]1(C)O (stereo partly drawn) [Example 18, (2S)-Cyclohexyl 2-((((2R,3R,4S,5R)-5-(2-amino-6-methoxy-9H-purin-9-yl)-3-fluoro-4-hydroxy-4-methyltetrahydrofuran-2-yl)methoxy)(naphthalen-1-yloxy)phosphorylamino)propanoate] | 1.3 µM |  |  | 30 µM |
| COc1nc(N)nc2c1ncn2[C@@H]1O[C@H](COP(=O)(N[C@@H](C)C(=O)OC2CCOCC2)Oc2cccc3ccccc23)[C@@H](F)[C@@]1(C)O (stereo partly drawn) [Example 19, (2S)-Tetrahydro-2H-pyran-4-yl 2-((((2R,3R,4S,5R)-5-(2-amino-6-methoxy-9H-purin-9-yl)-3-fluoro-4-hydroxy-4-methyltetrahydrofuran-2-yl)methoxy)(naphthalen-1-yloxy)phosphorylamino)propanoate] | 1.4 µM |  |  | 77 µM |
| CCOc1nc(N)nc2c1ncn2[C@@H]1O[C@H](COP(=O)(N[C@@H](C)C(=O)OCC(C)(C)C)Oc2cccc3ccccc23)[C@@H](F)[C@@]1(C)O (stereo partly drawn) [Example 20, (2S)-Neopentyl 2-((((2R,3R,4S,5R)-5-(2-amino-6-ethoxy-9H-purin-9-yl)-3-fluoro-4-hydroxy-4-methyltetrahydrofuran-2-yl)methoxy)(naphthalen-1-yloxy)phosphorylamino)propanoate] | 0.62 µM |  |  | 23 µM |
| CCOc1nc(N)nc2c1ncn2[C@@H]1O[C@H](COP(=O)(N[C@@H](C)C(=O)OC2CCCC2)Oc2cccc3ccccc23)[C@@H](F)[C@@]1(C)O (stereo partly drawn) [Example 21, (2S)-Cyclopentyl 2-((((2R,3R,4S,5R)-5-(2-amino-6-ethoxy-9H-purin-9-yl)-3-fluoro-4-hydroxy-4-methyltetrahydrofuran-2-yl)methoxy)(naphthalen-1-yloxy)phosphorylamino)propanoate] | 0.4 µM |  |  | 28 µM |
